“And” between values parts separate entries of the source, which are not always exact repeats. Equal values may be shown once. “Also recorded” adds a separate entry of the source. Where a name gives a salt, the structure may show the parent alone. Read-outs that look alike come from different tables or passages of the source.
Key:
[1] = molecular target: T1, recombinant human ACE2 (rhACE2) (Homo sapiens, UniProt Q9BYF1); experiment: ACE2 exopeptidase inhibitor screening assay (fluorogenic substrate), AMB and BHH; format: biochemical
T1 construct: purchased BPS Bioscience 79923
Method: ACE2 Inhibitor Screening Assay. An ACE2 exopeptidase Inhibitor screening assay kit with the fluorogenic substrate (Catalogue #79923) was purchased from BPS Bioscience (San Diego, CA) and modified to measure the exopeptidase activity of ACE2 in the presence and absence of inhibitors (BPSBioscience, 2022). Following the manufacturer's directions, the fluorescence assay was carried out in a 96-well black flat-bottom plate with a final reaction volume of 50 μL. 50 mM stock solutions of BHH and AMB in 100% DMSO were prepared. Compounds were serially diluted in DMSO as follows: 500, 250, 100, 50, 10, 1, 0.1 μM. All experiments were done in triplicates and repeated twice. A positive control of enzyme treated with vehicle alone (2 percent DMSO) and a blank control with no enzyme were included on each plate.
Each reaction had 24 μL of purified recombinant human ACE2 protein (0.42 ng/L) in ACE2 buffer, 1 μL of the compound at different concentrations, and 25 μL ACE2 fluorogenic substrate. The final volume of the reaction was 50 μL. The reaction mixtures were incubated for 1 hr at room temperature (22° C.) and protected from light. After that, the fluorescence intensities (λExcitation=535 nm, λEmission=595 nm) were measured using a Spectramax iD3 multimode plate reader. The background hydrolysis was subtracted, and the data were fitted to a four-parameter logistic (variable slope) equation using GraphPad prism software 9.1.

[2] = test system: SARS-CoV-2 spike pseudotyped lentivirus; experiment: microbe, parasite or virus in culture; format: cell-based
SARS-CoV-2 USA_WA1/2020 = experiment: microbe, parasite or virus in culture; format: cell-based
[3] = molecular target: T2, rhACE2 and SARS-CoV-2 Spike (RBD) protein interaction (Homo sapiens, UniProt Q9BYF1); experiment: Spike (RBD)-ACE2 binding assay (ELISA); design: species or system human; SARS-CoV-2; settings: for IC50: bell-shaped model, AMB, BHH
T2 construct: purchased RayBiotech CoV-SACE2-1

ACE1 [4] = molecular target: T3, ACE1 (Homo sapiens, UniProt P12821); experiment: ACE1 activity assay (colorimetric); format: biochemical
T3 construct: purchased Sigma-Aldrich MAK422
Method: ACE1 Activity Assay. ACE1 Inhibitor Screening Kit (Cat #MAK422) was purchased from Sigma-Aldrich (St. Louis, MO) and adapted to determine the effect of BHH and AMB on the enzymatic activity of ACE (Aldrich, 2022). The in vitro colorimetric assay was performed in a transparent flat-bottom 96-well plate. 50 mm and 10 mm solutions of Captropil, a known ACE1 inhibitor were used as a positive inhibitor control. Stock solutions of the compounds were prepared in 100% Dimethyl sulfoxide (DMSO) and further serially diluted in DMSO as follows: 500, 100, 50,10,5,1 and 0.5 μm for AMB and the positive control Captropil. All experiments were performed in quadruplicates. Each plate contained positive controls (1% DMSO) and blank controls with no ACE1 enzyme. Specifically, 2.5 μl of serially diluted compounds were pre-incubated with 2 μl of ACE1 protein diluted in 38 μl of 1× assay diluent buffer for about 15 mins, at room temperature (22° C.). 157.5 μl of 1×ACE1 assay buffer (197.5 μl for −ve control) was added into the 96 well plates. The solution was mixed well and incubated at 37° C. for 15-20 minutes, protected from light. After that, 40 μl of the substrate was added to each well and mixed well. The absorbance was measured immediately at 345 nm (A345) in kinetic mode for 60 minutes.

ACE1 [5] = experiment: Western blotting, ACE1 expression in A549 cells; format: cell-based, human; settings: 50 μm, 24 hrs and 48 hrs
Method: (§1) Western blotting. A549 “Lung” cells (RRID:CVCL_COQ5) were harvested in a radioimmuno precipitation assay (RIPA) buffer (Tris 10 mM pH 7.4, containing 140 mM NaCl, 1 mM EDTA, 1 mM NaF, 0.10% SDS, 0.50% sodium deoxycholate 0.1% NP-40, 1% Triton X-100) in the presence of protease inhibitors (Thermo Fisher) at 24 hrs. and 48 hrs. Protein concentration was determined by was determined using bicinchoninic acid with bovine serum albumin as a standard (Thermo Fisher). Equal amounts of protein were loaded and separated by SDS-PAGE using 10% pre-casted gels (Biorad). Proteins were electroblotted onto nitrocellulose membranes (Bio-Rad). The blots were blocked using 5% (w/v) milk in Tris-buffered saline containing 0.5% (v/v) Tween-20. The membranes were then incubated with different antibodies. Antibodies directed against ACE1 (ab28311) and ACE2 (ab108209) were used and the GAPDH antibody was used as loading control for cell lysates. Primary and secondary antibodies were diluted in Tris-buffered saline containing (0.5% v/v) Tween-20 (TBS-T) supplemented with 5% milk. The bands were visualized by incubating the blots with enhanced chemiluminescence reagent (ECL, Biorad) and visualized using chemidoc. Band intensities were quantified by using imagelab software Biorad.

ACE2 = experiment: Western blotting, ACE2 expression in A549 cells; format: cell-based, human; settings: 50 μm, 24 hrs and 48 hrs
Method: as §1

Vero E6 cells = settings: Vero E6
in vitro = settings: African green monkey

T3 sequence (P12821 30-1306): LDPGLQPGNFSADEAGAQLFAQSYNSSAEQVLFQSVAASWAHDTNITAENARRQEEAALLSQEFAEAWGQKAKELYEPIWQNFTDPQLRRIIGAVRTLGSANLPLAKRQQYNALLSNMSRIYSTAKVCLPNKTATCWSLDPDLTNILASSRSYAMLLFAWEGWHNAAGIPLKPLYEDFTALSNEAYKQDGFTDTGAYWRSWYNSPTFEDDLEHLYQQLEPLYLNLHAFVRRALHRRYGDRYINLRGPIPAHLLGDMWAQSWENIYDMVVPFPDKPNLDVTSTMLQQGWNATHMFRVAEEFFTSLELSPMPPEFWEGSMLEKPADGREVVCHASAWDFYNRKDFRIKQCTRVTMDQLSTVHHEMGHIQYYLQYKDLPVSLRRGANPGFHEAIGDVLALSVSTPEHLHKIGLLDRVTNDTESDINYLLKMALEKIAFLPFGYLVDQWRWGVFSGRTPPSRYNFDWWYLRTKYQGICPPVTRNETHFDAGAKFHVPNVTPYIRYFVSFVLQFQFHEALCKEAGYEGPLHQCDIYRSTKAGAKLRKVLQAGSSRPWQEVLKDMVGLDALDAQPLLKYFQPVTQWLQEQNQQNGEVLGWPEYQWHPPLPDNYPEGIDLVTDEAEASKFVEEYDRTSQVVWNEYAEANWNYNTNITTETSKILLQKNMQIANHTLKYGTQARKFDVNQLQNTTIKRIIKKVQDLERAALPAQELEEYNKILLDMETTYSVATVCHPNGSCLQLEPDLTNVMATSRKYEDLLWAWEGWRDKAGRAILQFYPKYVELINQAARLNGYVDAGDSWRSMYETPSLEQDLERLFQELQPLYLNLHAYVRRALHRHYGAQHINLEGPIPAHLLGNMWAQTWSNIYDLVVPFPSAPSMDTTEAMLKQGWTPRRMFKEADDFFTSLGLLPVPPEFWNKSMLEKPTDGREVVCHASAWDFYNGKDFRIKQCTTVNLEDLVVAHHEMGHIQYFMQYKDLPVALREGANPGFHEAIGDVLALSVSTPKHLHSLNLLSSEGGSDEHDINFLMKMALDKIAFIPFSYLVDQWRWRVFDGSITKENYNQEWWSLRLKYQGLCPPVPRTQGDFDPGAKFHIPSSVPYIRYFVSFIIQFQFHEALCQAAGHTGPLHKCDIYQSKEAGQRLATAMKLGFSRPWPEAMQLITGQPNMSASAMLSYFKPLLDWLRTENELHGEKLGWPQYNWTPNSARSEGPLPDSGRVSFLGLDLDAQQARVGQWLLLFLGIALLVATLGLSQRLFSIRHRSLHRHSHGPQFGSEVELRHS
T2 sequence (Q9BYF1 18-740): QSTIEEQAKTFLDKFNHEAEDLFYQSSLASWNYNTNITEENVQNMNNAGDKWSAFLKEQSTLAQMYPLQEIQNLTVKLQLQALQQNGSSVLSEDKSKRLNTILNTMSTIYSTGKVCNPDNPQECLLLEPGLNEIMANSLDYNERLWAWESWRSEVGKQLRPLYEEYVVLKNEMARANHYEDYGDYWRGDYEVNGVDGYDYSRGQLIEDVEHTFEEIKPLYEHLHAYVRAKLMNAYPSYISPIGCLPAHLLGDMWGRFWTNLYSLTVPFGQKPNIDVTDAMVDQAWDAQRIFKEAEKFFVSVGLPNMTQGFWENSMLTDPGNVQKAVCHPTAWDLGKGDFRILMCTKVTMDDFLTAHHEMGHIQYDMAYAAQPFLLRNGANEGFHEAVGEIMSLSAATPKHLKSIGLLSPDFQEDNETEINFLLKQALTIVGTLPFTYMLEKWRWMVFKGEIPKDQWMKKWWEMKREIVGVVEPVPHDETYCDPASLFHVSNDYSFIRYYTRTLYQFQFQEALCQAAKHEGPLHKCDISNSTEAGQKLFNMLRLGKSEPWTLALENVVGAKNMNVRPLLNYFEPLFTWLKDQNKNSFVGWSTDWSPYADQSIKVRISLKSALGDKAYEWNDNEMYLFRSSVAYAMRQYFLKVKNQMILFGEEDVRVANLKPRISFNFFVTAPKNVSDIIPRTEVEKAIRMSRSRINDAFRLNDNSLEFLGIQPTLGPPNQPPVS
T1 sequence (Q9BYF1 18-805): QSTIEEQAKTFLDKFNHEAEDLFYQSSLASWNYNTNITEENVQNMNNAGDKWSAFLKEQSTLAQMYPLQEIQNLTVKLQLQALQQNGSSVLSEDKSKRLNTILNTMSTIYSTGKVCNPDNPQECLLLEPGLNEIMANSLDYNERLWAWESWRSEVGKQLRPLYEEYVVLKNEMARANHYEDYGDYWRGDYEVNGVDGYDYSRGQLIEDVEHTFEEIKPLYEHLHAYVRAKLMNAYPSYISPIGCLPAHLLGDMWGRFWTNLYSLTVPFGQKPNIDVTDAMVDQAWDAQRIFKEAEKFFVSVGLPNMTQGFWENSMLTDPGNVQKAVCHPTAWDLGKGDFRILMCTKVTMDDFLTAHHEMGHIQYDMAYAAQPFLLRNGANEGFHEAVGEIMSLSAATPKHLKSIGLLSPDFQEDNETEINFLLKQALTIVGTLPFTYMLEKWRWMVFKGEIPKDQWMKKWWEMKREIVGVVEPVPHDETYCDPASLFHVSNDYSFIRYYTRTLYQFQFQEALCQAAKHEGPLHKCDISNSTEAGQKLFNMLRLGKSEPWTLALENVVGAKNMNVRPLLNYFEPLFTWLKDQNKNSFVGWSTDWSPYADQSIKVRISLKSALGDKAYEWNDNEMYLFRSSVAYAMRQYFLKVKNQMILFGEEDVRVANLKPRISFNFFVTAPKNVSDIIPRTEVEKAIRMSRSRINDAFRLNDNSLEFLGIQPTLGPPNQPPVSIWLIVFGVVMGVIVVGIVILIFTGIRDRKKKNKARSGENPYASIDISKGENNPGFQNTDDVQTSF

Nc1c(Br)cc(Br)cc1CN[C@H]1CC[C@H](O)CC1 [AMB, 4-[(2-amino-3,5-dibromophenyl)methylamino]cyclohexan-1-ol; hydrochloride]
ACE2 Exopeptidase Activity: Percent Activity ([1]; 0.1 uM): 148.7% | inhibition at 0.1 µM ([1]; 0.1 uM, read-out: ACE2 Exopeptidase Activity: Percent Inhibition): -48.7% | ACE2 Exopeptidase Activity: Percent Activity ([1]; 1 uM): 152.3% | inhibition at 1 µM ([1]; 1 uM, read-out: ACE2 Exopeptidase Activity: Percent Inhibition): -52.3% | ACE2 Exopeptidase Activity: Percent Activity ([1]; 10 uM): 159.9% | inhibition at 10 µM ([1]; 10 uM, read-out: ACE2 Exopeptidase Activity: Percent Inhibition): -59.9% | ACE2 Exopeptidase Activity: Percent Activity ([1]; 50 uM): 157.1% | inhibition at 50 µM ([1]; 50 uM, read-out: ACE2 Exopeptidase Activity: Percent Inhibition): -57.1% | ACE2 Exopeptidase Activity: Percent Activity ([1]; 100 uM): 156.9% | inhibition at 100 µM ([1]; 100 uM, read-out: ACE2 Exopeptidase Activity: Percent Inhibition): -56.9% | ACE2 Exopeptidase Activity: Percent Activity ([1]; 250 uM): 144.7% | inhibition at 250 µM ([1]; 250 uM, read-out: ACE2 Exopeptidase Activity: Percent Inhibition): -44.7% | ACE2 Exopeptidase Activity: Percent Activity ([1]; 500 uM): 141.0% | inhibition at 500 µM ([1]; 500 uM, read-out: ACE2 Exopeptidase Activity: Percent Inhibition): -41% | effect on exopeptidase activity of rhACE2 ([1]; tested 0.1 to 500 μM): did not inhibit | Percent Inhibition of fusion of SARS-CoV-2 spike pseudotyped lentivirus with HEK293-ACE2 cells ([2]; 10 μM, Table 3, hydrochloride): 86% and 55% | Percent Inhibition of fusion of SARS-CoV-2 spike pseudotyped lentivirus with HEK293-ACE2 cells ([2]; 25 μM, Table 3, hydrochloride): 64% | Percent (%) Inhibition of Pseudo virus Entry in HEK293 Kidney Cells, SARS-COV-2 ([2]; 50 μM, Table 2, hydrochloride): 46% | Percent Inhibition of fusion of SARS-CoV-2 spike pseudotyped lentivirus with HEK293-ACE2 cells ([2]; 50 μM, Table 3, hydrochloride): 59% | Percent Inhibition of fusion of SARS-CoV-2 spike pseudotyped lentivirus with HEK293-ACE2 cells ([2]; 100 μM, Table 3, hydrochloride): 47% | inhibition at 25 µM ([2]; Severe acute respiratory syndrome coronavirus 2, 25 μM, Table 3, read-out: Percent Inhibition of fusion of SARS-CoV-2 spike pseudotyped lentivirus with HEK293-ACE2 cells): 78% | inhibition at 50 µM ([2]; Severe acute respiratory syndrome coronavirus 2, 50 μM, Table 3, read-out: Percent Inhibition of fusion of SARS-CoV-2 spike pseudotyped lentivirus with HEK293-ACE2 cells): 72% | inhibition at 100 µM ([2]; Severe acute respiratory syndrome coronavirus 2, 100 μM, Table 3, read-out: Percent Inhibition of fusion of SARS-CoV-2 spike pseudotyped lentivirus with HEK293-ACE2 cells): 41% | inhibition at 10 µM ([2]; Severe acute respiratory syndrome coronavirus 2, HEK293, 10 μM, Table 2, read-out: Percent (%) Inhibition of Pseudo virus Entry in HEK293 Kidney Cells, SARS-COV-2): 2% | inhibition at 25 µM ([2]; Severe acute respiratory syndrome coronavirus 2, HEK293, 25 μM, Table 2, read-out: Percent (%) Inhibition of Pseudo virus Entry in HEK293 Kidney Cells, SARS-COV-2): 12% | inhibition at 50 µM ([2]; Severe acute respiratory syndrome coronavirus 2, HEK293, 50 μM, Table 2, read-out: Percent (%) Inhibition of Pseudo virus Entry in HEK293 Kidney Cells, SARS-COV-2): ~50% | inhibition at 100 µM ([2]; Severe acute respiratory syndrome coronavirus 2, HEK293, 100 μM, Table 2, read-out: Percent (%) Inhibition of Pseudo virus Entry in HEK293 Kidney Cells, SARS-COV-2): 89% | Concentration at Maximum % Inhibition (SARS-CoV-2 USA_WA1/2020; Example C (Table 3)): 150 µM | Maximum Inhibition (SARS-CoV-2 USA_WA1/2020; Example C (Table 3)): 49.87% | IC50 (SARS-CoV-2 USA_WA1/2020; Example C (Table 3), hydrochloride, read-out: IC 50 against SARS-COV-2 Induced Cytopathic Effect in Vero E6 Cells): > 150 µM | IC50 (SARS-CoV-2 USA_WA1/2020; Severe acute respiratory syndrome coronavirus 2, Vero C1008, Example C (Table 3), read-out: IC 50 against SARS-COV-2 Induced Cytopathic Effect in Vero E6 Cells): ≥ 150 µM | IC50 (SARS-CoV-2 USA_WA1/2020; Severe acute respiratory syndrome coronavirus 2, Vero C1008, Vero E6, Example B, highest concentration tested 30 μM, read-out: IC50 against SARS-CoV-2 infection induced CPE): > 30 µM | inhibition at 30 µM (SARS-CoV-2 USA_WA1/2020; Severe acute respiratory syndrome coronavirus 2, Vero C1008, at 30 μM, Example B, read-out: inhibition of SARS-CoV-2 induced CPE at maximum concentration): 14.2% | effect on Spike (RBD)-rhACE2 interaction ([3]; 100 μM to 100 nM, hydrochloride): did not produce a stimulation or enhancement of binding; also recorded: more potent at disrupting the interaction between ACE2 and RBD than BHH | IC50 ([3]; highest tested 100 μM, read-out: Estimated Relative IC50 against rhACE2 and RBD Interaction Assay, IC50_2): 232 µM | IC50 ([3]; read-out: Estimated Relative IC50 against rhACE2 and RBD Interaction Assay, IC50_1): 0.82 µM | remaining activity at 500 µM (ACE1 [4]; 500 μM, read-out: ACE activity remaining): 100% | effect on exopeptidase activity of ACE (ACE1 [4]; hydrochloride): did not inhibit the activity of ACE | change of ACE1 expression (ACE1 [5]): no changes | change of ACE2 expression (ACE2): no changes | Conc. at Max. % Viability (Vero E6 cells; Example C (Table 4)): 0.59 µM | Conc. at Min. % Viability (Vero E6 cells; Example C (Table 4)): 300 µM | Min. Viability (Vero E6 cells; Example C (Table 4)): 0.55% | Max. Viability (Vero E6 cells; Example C (Table 4), hydrochloride): 96% and 96.64% | percent minimum viability (Vero E6 cells; at 30 μM, Example B): 113.95% | CC50 at 72 h (in vitro; 50% cytotoxic concentration (CC50), Vero E6, 72 hours, Examples A and B, highest concentration 30 μM): > 30 µM | CC50 at 72 h (in vitro; Cytotoxicity CC50, Vero E6, 72 hours, Example C (Table 4)): 184 µM

— patent publication US20240285552A1 (priority 2020, published 2024)
